Assay [1] deals with T1, hP2X2/3H (Homo sapiens, UniProt P56373+Q9UBL9).
T1 construct: expressed in transfected cells; host or cells: e.g. HEK293 or 1321N1
T1 sequence (Q9UBL9 1-471): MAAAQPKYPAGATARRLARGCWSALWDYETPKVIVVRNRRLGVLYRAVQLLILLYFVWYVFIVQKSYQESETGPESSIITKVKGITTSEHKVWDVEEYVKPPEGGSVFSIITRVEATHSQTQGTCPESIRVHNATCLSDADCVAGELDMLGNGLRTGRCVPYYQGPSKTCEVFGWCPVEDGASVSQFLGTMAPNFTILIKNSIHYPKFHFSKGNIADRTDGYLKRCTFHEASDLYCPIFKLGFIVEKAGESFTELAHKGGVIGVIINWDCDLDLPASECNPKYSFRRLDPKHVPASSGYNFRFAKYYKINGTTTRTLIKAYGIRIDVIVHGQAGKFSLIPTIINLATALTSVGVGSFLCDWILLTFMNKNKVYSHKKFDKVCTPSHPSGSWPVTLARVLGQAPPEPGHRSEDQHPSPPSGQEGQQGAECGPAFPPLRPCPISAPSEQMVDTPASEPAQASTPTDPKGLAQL
T1 sequence (P56373 1-397): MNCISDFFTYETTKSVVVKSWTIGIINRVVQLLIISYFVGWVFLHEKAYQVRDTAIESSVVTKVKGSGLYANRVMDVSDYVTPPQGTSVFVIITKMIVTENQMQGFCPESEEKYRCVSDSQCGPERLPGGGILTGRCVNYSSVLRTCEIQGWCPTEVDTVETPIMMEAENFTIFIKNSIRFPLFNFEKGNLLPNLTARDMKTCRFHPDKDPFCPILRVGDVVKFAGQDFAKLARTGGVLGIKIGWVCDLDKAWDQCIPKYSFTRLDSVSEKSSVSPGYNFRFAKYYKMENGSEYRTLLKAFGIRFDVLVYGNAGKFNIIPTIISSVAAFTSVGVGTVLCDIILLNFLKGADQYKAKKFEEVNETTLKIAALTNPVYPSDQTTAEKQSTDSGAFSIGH
The assay can be described thus: Calcium uptake assay (P2X antagonist assay), P2X2/3 heteromer. The assay is classed as cell-based. The source says: (§1) The human P2X2/3 chimera clone is created as described by Neelands et al, and then cloned into an expression vector as above. Receptors are expressed in cells (e.g., HEK293 or 1321N1 (obtained from the ECACC)) via transient transfection using standard lipid mediated transfection, or by creation of stable transfectants for each receptor. For expression of the P2X2/3 heteromeric receptor, the P2X3 expression vector is stably transfected into a cell line already stably expressing P2X2. P2X2/3 heteromer function is isolated using pharmacological methods. Cell lines are maintained in DMEM+5% Glutamax, the appropriate level of selective antibiotic, and 10% heat inactivated FBS.
(§2) Functional activity of compounds at the P2X receptor is determined by measuring their ability to inhibit agonist-induced calcium influx. Compounds are tested for antagonist activity against the P2X2/3 chimera, the P2X3 homomer, or the P2X2/3 heteromer. At the start of each screening day, the agonist EC50 is determined. Compound % inhibition or IC50s are subsequently determined using a predetermined agonist concentration (EC50-90 depending on cell line) as a stimulus. The agonists used are αβMeATP, ATP, or other ATP analogs. Compounds may be tested at concentrations ranging from 1 pM to 10 μM.
(§3) To test for antagonist activity, cells expressing the appropriate receptor are seeded onto 96 or 384 well plates 18-24 hours prior to assay. […] Plates are incubated at 37° C. and then equilibrated at room temperature. Antagonism of agonist-induced calcium influx is measured using a fluorescent imaging plate reader (e.g. FLIPR^TETRA, Molecular Devices, Sunnyvale, Calif.). The assay comprises two stages: a pre-treatment phase followed by a treatment phase. Compounds may be tested as follows: For the pre-treatment phase, 50 μL of 3× concentration of test compound in HBSS is added to cells containing […], of dye loading media to achieve a final concentration of 1× test compound. For the treatment phase, at a set interval after pre-treatment (1-30 minutes), 50 μL of 1× test compound plus 4× agonist solution is added, resulting in a final concentration of 1× compound and 1× agonist. […] Responses are measured as (peak fluorescence after agonist addition) minus (baseline fluorescence prior to treatment). Percent inhibition is calculated as follows:
(§4) [formula] IC50 values are determined by analyzing dose response data in a 4 parameter logistic fit using GraphPad Prizm.

The target in assay [2] is T2, hP2X3 (Homo sapiens, UniProt P56373).
T2 construct: expressed in transfected cells; host or cells: e.g. HEK293 or 1321N1
T2 sequence (P56373 1-397): T1 sequence (P56373 1-397)
In words: Calcium uptake assay (P2X antagonist assay), P2X3 homomer. The assay is classed as cell-based.
From the text: as §1, §2, §3, §4

[3] abbreviates: calcium uptake assay, hP2X2/3H, read-out: IC50 hP2X2/3H (nM), Ca Influx.
The mark [4] stands for this setting: calcium uptake assay, hP2X3, read-out: IC50 hP2X3 (nM), Ca Influx.
[5] abbreviates: Ca influx (calcium uptake assay), hP2X2/3H, read-out: IC50 hP2X2/3H.
Setting [6] is: Ca influx (calcium uptake assay), hP2X3, read-out: IC50 hP2X3.

Each structure is given as a SMILES string. Where two headings read alike, the source gives them in different places.

As to `Cc1ccc(-c2cc(C(=O)N[C@H](C)c3cnc(C)nc3)cc(S(=O)(=O)CC(C)C)c2)cc1` [Compound 194], the IC50 in assay [1] (setting [3]) and in assay [2] (setting [4]) was < 100 nM each time.
As to `Cc1ccc(-c2cc(Oc3nccs3)cc(C(=O)N[C@H](C)c3cnc(C)nc3)c2)nc1` [Compound 269, (R)-3-(5-Methylpyridin-2-yl)-N-(1-(2-methylpyrimidin-5-yl)ethyl)-5-(thiazol-2-yloxy)benzamide], the IC50 in assay [1] (setting [5]) and in assay [2] (setting [6]) was < 100 nM throughout.
As for `Cc1ccc(-c2cc(C(=O)NCc3ccc4ocnc4c3)cc(C(=O)N3CCCC3)c2)cc1` [Compound 90], the IC50 in assay [1] (setting [3]) and in assay [2] (setting [4]) was < 100 nM each time.
In the case of `Cc1ccc(-c2cc(C(=O)NCc3ccc(C)nc3)cc(C(=O)N3CCN(c4nccs4)CC3)c2)cc1` [Compound 127, 4′-Methyl-N-((6-methylpyridin-3-yl)methyl)-5-(4-(thiazol-2-yl)piperazine-1-carbonyl)biphenyl-3-carboxamide], the IC50 is 100 to 500 nM in assay [1] (setting [3]) and < 100 nM in assay [2] (setting [4]).
Taken in the same sequence, the figures for `Cc1ccc(-c2cc(C#N)cc(C(=O)NCc3cnc(C)nc3)c2)nc1` [Compound 155] were > 1000 nM and > 1000 nM.
Turning to `COCCOc1cc(C(=O)N[C@H](C)c2ccc(C)nc2)cc(-c2ccc(C)cc2C#N)c1` [Compound 252], the IC50 in assay [1] (setting [5]) and in assay [2] (setting [6]) was < 100 nM throughout.
`Cc1ccc(-c2cc(Oc3ncccn3)cc(C(=O)N[C@H](C)c3cnc(C)nc3)c2)c(C#N)c1` [Compound 247]: the values for the IC50 in assay [1] (setting [5]) and in assay [2] (setting [6]) were 100 to 500 nM and < 100 nM, respectively.
In the same order, the values of `COCCOc1cc(C(=O)N[C@H](C)c2cnc(C)nc2)cc(-c2ccc(C)cc2)c1` [Compound 251] are < 100 nM and < 100 nM.
On to `Cc1ccc(-c2cc(C(=O)N[C@H](C)c3cnc(C)nc3)cc(C(=O)N3CCCC3)c2)nc1` [Compound 174], for which the IC50 in assay [1] (setting [3]) and in assay [2] (setting [4]) was < 100 nM in each case.
On to `Cc1ccc(-c2cc(C(=O)NCc3ccc(C)nc3)cc(C(=O)N3C[C@H]4CNC[C@H]4C3)c2)cc1` [Compound 140, 4′-Methyl-N-((6-methylpyridin-3-yl)methyl)-5-((3aR,6aS)-octahydropyrrolo[3,4-c]pyrrole-2-carbonyl)biphenyl-3-carboxamide], for which the IC50 in assay [1] (setting [3]) and in assay [2] (setting [4]) was 100 to 500 nM each time.
Turning to `Cc1ccc(-c2cc(C(=O)N[C@H](C)c3ccc(C)nc3)cc(C(O)c3ccccc3)c2)cc1` (stereo partly drawn) [Compound 227, 5-(Hydroxy(phenyl)methyl)-4′-methyl-N—((R)-1-(6-methylpyridin-3-yl)ethyl)biphenyl-3-carboxamide], the IC50 in assay [1] (setting [5]) is < 100 nM; in assay [2] (setting [6]), 100 to 500 nM.
On to `Cc1ccc(-c2cc(C(=O)N[C@@H](C)CN3CCOCC3)cc(C(=O)N3CCCC3)c2)cc1` [Compound 82], for which the IC50 is 501 to 1000 nM in assay [1] (setting [3]) and < 100 nM in assay [2] (setting [4]).
As to `Cc1ccc(-c2cc(OC3COCC3O)cc(C(=O)N[C@H](C)c3ccc(C)nc3)c2)nc1` (some centres unmarked) [Compound 347], the IC50 in assay [1] (setting [5]) is 100 to 500 nM; in assay [2] (setting [6]), < 100 nM.
Taken in the same sequence, the figures for `COCC(CO)Oc1cc(C(=O)N[C@H](C)c2ccc(C)nc2)cc(-c2ccc(C)cc2)c1` (some centres unmarked) [Compound 323] were < 100 nM and < 100 nM.
In the same order, the values of `Cc1ccc(-c2cc(OCC3COCCO3)cc(C(=O)N[C@H](C)c3ccc(C)nc3)c2)nc1` (some centres unmarked) [Compound 332] are 100 to 500 nM and < 100 nM.
In the same order, the values of `Cc1ccc(-c2cc(C(=O)NCc3ccc(C)nc3)cc(C(O)c3ccccc3)c2)cc1` (centres unmarked) [Compound 228] are 100 to 500 nM and 100 to 500 nM.
`Cc1ccc(-c2cc(C(=O)NCc3ccc(C)nc3)cc(C(O)CN3CCOCC3CO)c2)cc1` (centres unmarked) [Compound 390]: the IC50 in assay [1] (setting [5]) and in assay [2] (setting [6]) was < 100 nM in each case.
With `Cc1ccc(-c2cc(C(=O)NCc3ccc(C)nc3)cc(S(=O)(=O)N3CCCC3)c2)nc1` [Compound 106], the IC50 in assay [1] (setting [3]) and in assay [2] (setting [4]) was < 100 nM throughout.
As for `Cc1ccc(-c2cc(C(=O)NCc3cnc(C)nc3)cc(C(=O)N3CCCC3C(F)(F)F)c2)cc1` (centres unmarked) [Compound 33], the IC50 in assay [1] (setting [3]) and in assay [2] (setting [4]) was < 100 nM throughout.
Take `Cc1ccc(-c2cc(Oc3ccccn3)cc(C(=O)N[C@H](C)c3cnc(C)nc3)c2)c(C#N)c1` [Compound 258]: the IC50 in assay [1] (setting [5]) is 100 to 500 nM; in assay [2] (setting [6]) it was < 100 nM.
Take `Cc1ccc(-c2cc(Oc3nc4ccccc4s3)cc(C(=O)N[C@H](C)c3ccc(C)nc3)c2)nc1` [Compound 376]: the IC50 in assay [1] (setting [5]) and in assay [2] (setting [6]) was < 100 nM throughout.
Take `Cc1ccc(-c2cc(C(=O)NCc3ccc(C)nc3)cc(C(O)C(F)(F)F)c2)c(C#N)c1` (centres unmarked) [Compound 296]: the IC50 in assay [1] (setting [5]) and in assay [2] (setting [6]) was < 100 nM in each case.
Turning to `Cc1ccc(-c2cc(Oc3nccs3)cc(C(=O)NCc3cnc(C)nc3)c2)cc1` [Compound 237], the IC50 in assay [1] (setting [5]) is 100 to 500 nM; in assay [2] (setting [6]) it was < 100 nM.
As for `Cc1ccc(-c2cc(C(=O)NCc3ccc(C)nc3)cc(C(O)CN3CC4CN(C)CC4C3)c2)cc1` (centres unmarked) [Compound 399], the IC50 in assay [1] (Ca influx, calcium uptake assay, read-out: IC50 hP2X2/3H) lay in the range of 501 to 1000 nM; in assay [2] (Ca influx, calcium uptake assay, read-out: IC50 hP2X3), 100 to 500 nM.
On to `Cc1ccc(-c2cc(C(=O)N[C@H](C)c3cnc(C)nc3)cc(S(C)(=O)=O)c2)nc1` [Compound 322], for which the IC50 was 100 to 500 nM in assay [1] (setting [5]) and < 100 nM in assay [2] (setting [6]).
Taken in the same sequence, the figures for `Cc1ccc(-c2cc(OC3CNCC3O)cc(C(=O)N[C@H](C)c3ccc(C)nc3)c2)c(C#N)c1` (stereo partly drawn) [Compound 338, 2′-Cyano-5-(4-hydroxypyrrolidin-3-yloxy)-4′-methyl-N—((R)-1-(6-methylpyridin-3-yl)ethyl)biphenyl-3-carboxamide] were 100 to 500 nM and < 100 nM.
With `Cc1ccc(-c2cc(C(=O)NCc3ccc(C)nc3)cc(C(=O)N3CCNCC3)c2)cc1` [Compound 124], the figures for the IC50 in assay [1] (setting [3]) and in assay [2] (setting [4]) were 100 to 500 nM and < 100 nM, respectively.
Taken in the same sequence, the figures for `Cc1ccc(-c2cc(C(=O)NCc3cnc(C)nc3)cc(C(=O)N3CC(O)C3)c2)cc1` [Compound 29, 5-(3-Hydroxyazetidine-1-carbonyl)-4′-methyl-N-((2-methylpyrimidin-5-yl)methyl)biphenyl-3-carboxamide] were < 100 nM and < 100 nM.
Take `Cc1ccc(CNC(=O)c2cc(C(=O)N3CCCC3)cc(-c3ccc(Br)cc3)c2)cn1` [Compound 200, 4′-Bromo-N-((6-methylpyridin-3-yl)methyl)-5-(pyrrolidine-1-carbonyl)biphenyl-3-carboxamide]: the IC50 in assay [1] (setting [5]) and in assay [2] (setting [6]) was < 100 nM in each case.
`CCN(CC)CC(O)c1cc(C(=O)N[C@H](C)c2ccc(C)nc2)cc(-c2ccc(C)cc2C#N)c1` (some centres unmarked) [Compound 343]: the IC50 was 100 to 500 nM in assay [1] (setting [5]) and < 100 nM in assay [2] (setting [6]).
Taken in the same sequence, the figures for `Cc1ccc(-c2cc(OC(C)CO)cc(C(=O)N[C@H](C)c3ccc(C)nc3)c2)cc1` (some centres unmarked) [Compound 346] were < 100 nM and < 100 nM.

These data come from patent US8946439B2, “Amide compounds, compositions and uses thereof” (Evotec AG, priority 2008, dated 2015).
